Data as given in patent US10787423B2, “Piperazine and piperidine derivatives, their synthesis and use thereof in inhibiting VDAC oligomerization, apoptosis and mitochondria dysfunction” (THE NATIONAL INSTITUTE FOR BIOTECHNOLOGY IN THE NEGEV LTD., priority 2015, dated 2020).
Read-outs that look alike come from different tables or passages of the source.

What was measured:
VDAC1 = VDAC1 (Homo sapiens, UniProt P21796); assay: Selenite-induced VDAC1 oligomerization by EGS cross-linking and immunoblot in HEK-293 cells (Method B); assay type: cell-based; design: endogenous in cells; host or cells: HEK-293
Sequence of VDAC1 (P21796 whole entry): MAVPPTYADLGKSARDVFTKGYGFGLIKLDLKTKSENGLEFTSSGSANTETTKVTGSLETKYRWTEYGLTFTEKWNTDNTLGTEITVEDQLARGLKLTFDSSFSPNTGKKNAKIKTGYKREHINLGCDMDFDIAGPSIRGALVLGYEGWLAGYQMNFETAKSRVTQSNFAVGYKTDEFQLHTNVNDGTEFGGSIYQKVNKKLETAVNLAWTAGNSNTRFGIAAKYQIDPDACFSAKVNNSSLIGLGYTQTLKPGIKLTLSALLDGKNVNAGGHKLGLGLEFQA
Method: Appropriate test cells (2.5-3 mg/ml) in PBS, were harvested after the treatment and incubated with the cross-linking reagent EGS at a ratio of 100-300 μM for sample of 2-3 mg protein/ml concentration (pH 8.3) for 15 minutes. Protein concentration was determined according to Lowry assay. Samples (60-80 μg protein) were subjected to SDS-PAGE by a standard technique and immunoblotting was performed using anti-VDAC1 antibodies. Gels were electro-transferred onto nitrocellulose membranes for immuno-staining. The membranes were incubated with a blocking solution containing 5% non-fat dry milk and 0.1% Tween-20 in Tris-buffered saline, followed by incubation with monoclonal anti-VDAC1, anti-Cytochrome c, anti-AIF or anti-actin antibodies. Membranes were then incubated with HRP-conjugated anti-mouse or anti-rabbit IgG (1:10,000), serving as secondary antibodies. Antibody labeling was detected by chemiluminescence. To detect VDAC1 oligomers, membranes were treated with 0.1 M glycine, pH 2.0, prior to immunoblotting and washed several times with 0.1% Tween-20 in Tris-buffered saline. Quantitative analysis of immuno-reactive VDAC1 dimer, trimer and multimer bands was performed using FUSION-FX (Vilber Lourmat, France).
The closed circle (●) indicates VBIT-4 (compound of Formula 1), the open circle (◯) indicates compound of Formula 10, and an open square (□) indicates VBIT-3 (compound of Formula 2).
(§1) d. IC50 values of the tested compounds were derived from the obtained data. The results shown correspond to means±SD (n=3).

[1] = system: Cyto c release from mitochondria; assay: Selenite-induced Cytochrome c release from mitochondria in HEK-293 cells; assay type: cell-based; details: Homo sapiens, HEK293, compound 2 h then selenite 15 μM 4 h, means±SD (n=3)
Method: One of the ways cell apoptosis is activated is by release of Cytochrome c (Cyto c) from the mitochondria into cytosol. […] Cyto c released to the cytosol may be analyzed by immunoblotting using Cyto c-specific antibodies.
Cells treated with apoptosis inducers in the absence or presence of the tested compounds were harvested, washed twice with PBS, pH 7.4 and gently resuspended at 6 mg/ml in ice-cold buffer (100 mM KCl, 2.5 mM MgCl2, 250 mM sucrose, 20 mM HEPES/KOH pH 7.5, 0.2 mM EDTA, 1 mM dithiothreitol, 1 μg/ml leupeptin, […] and 0.1 mM PMSF) containing 0.025% digitonin and incubated for 10 min on ice. Samples were centrifuged at 10,000×g (relative centrifugal force—RCF) at 4° C. for 5 min to obtain supernatants (cytosolic extracts free of mitochondria) and pellet (fraction that contains mitochondria). Cytochrome c released to the cytosol was analyzed by immunoblotting using Cytochrome c-specific antibodies. Anti-VDAC1 and anti-GAPDH antibodies were used to verify that the cytosolic extracts are mitochondria-free.
c. Cytochrome c (Cyto c) release was determined as described above in Methods (Cytochrome c release from mitochondria). Briefly, to assess Cyto c release, cells were incubated on ice for 10 min with 0.025% digitonin, centrifuged, and the pellet (mitochondria—Mito) and supernatants (cytosol—Cytos) were subjected to SDS-PAGE and immunoblotting, using anti-Cyto c, antibodies. Anti-VDAC1 and anti-GAPDH antibodies were used to verify that the cytosolic extracts are mitochondria-free. The results of Cyto c release from the mitochondria as induced by selenite are presented as immunoblots, with the cytosolic and mitochondrial fractions confirmed by immunoblotting of GAPDH (glyceraldehyde-3-phosphate dehydrogenase) and VDAC1, respectively, in the FIG. 15d. The data are presented as percent inhibition. The results shown correspond to means±SD (n=3). The closed circle (●) indicates VBIT-4 (compound of Formula 1), the open circle (◯) indicates compound of Formula 10 (AKOS-022), and an open square (□) indicates VBIT-3 (compound of Formula 2).
d. […]

purified VDAC1 = target: T1, purified VDAC1 (Rattus norvegicus, UniProt Q9Z2L0); assay: Microscale thermophoresis (MST) binding to purified VDAC1
T1 construct: rat liver mitochondria (5 mg/ml) in 10 mM Tris-HCl, pH 7.2, were incubated with 2% LDAO; from tissue; host or cells: rat liver mitochondria
T1 sequence (Q9Z2L0 whole entry): as the sequence (P21796 whole entry) above, with T55N, M129V, A160S, I227V counted along it
Method: To obtain quantitative parameters of this interaction and derive a dissociation constant, e.g. a microscale thermophoresis (MST) interaction assay may be performed. In this manner, dissociation values are derived from the curves showing the affinity of the compounds of the invention to VDAC.
Briefly, rat liver mitochondria (5 mg/ml) in 10 mM Tris-HCl, pH 7.2, were incubated with 2% LDAO at 0° C. for 20 min, followed by centrifugation (30 min, 14,000 g) and the obtained supernatant was loaded onto a dry celite:hydroxyapatite (2:1) column. VDAC1 was eluted with a solution containing 2% LDAO, 10 mM Tris-HCl, pH 7.2, 50 mM NaCl, and 20 to 22 mM NaH2PO4, with VDAC1 detection by Coomassie blue staining. The VDAC1-containing fractions were dialyzed against 10 mM Tris-HCl, pH 7.2, and subjected to a second chromatography step on a carboxymethyl-cellulose (CMC) column from which VDAC1 was eluted with a solution containing 10 mM Tris-HCl, pH 7.2, 0.1% LDAO and 500 mM NaCl, detected as above. The VDAC1-containing fractions were collected and used for VDAC1 channel conductance and MST assays.
MST analysis was performed using a NanoTemper Monolith NT.115 apparatus. […]
Purified VDAC1 (133 nM), labeled using the NanoTemper fluorescent protein-labeling Kit BLUE (Nano Temper technologies, Munich, Germany), according to the manufactory instructions, was incubated with increasing concentrations of the following tested compounds: compound of Formula 10 (AKOS-022), compound of Formula 2 (VBIT-3), or racemic compound of Formula 1 (VBIT-4). After 20 min of incubation, the samples (3-5 μL) were loaded into MST-grade glass capillaries (Monolith NT Capillaries), and the thermophoresis process was measured using the Monolith-NT115 apparatus.
Fmax and Fmin represent the maximal and minimal fluorescence, respectively and F the fluorescence measured in the presence of the tested compound.
VDAC1 binding affinities of tested compounds were calculated from the MST measurements.

HEK-293 cells = assay: Selenite-induced apoptosis, annexin V-FITC/PI staining and FACS, HEK-293 cells; assay type: cell-based; details: Homo sapiens, HEK293, compound 2 h then selenite 15 μM 4 h, means±SD (n=3)
Method: The ability of the compounds of general Formulae (I), (Ia), (Ib), (Ic), (Id), (II) and (IIa) to inhibit apoptosis may be analyzed by annexin-V/propidium iodide (PI) staining and flow cytometry.
Cells, e.g. HeLa cells (2×10^5), untreated or treated with apoptosis-inducing reagents, were analyzed for apoptotic cell death using PI, annexin V-FITC and flow cytometer analysis. Cells were collected (1500×g for 10 min), washed, and resuspended in 200 μl binding buffer (10 mM HEPES/NaOH, pH 7.4, 140 mM NaCl, and 2.5 mM CaCl2). Annexin V-FITC was added according to the recommended Protocol (Enzo Life Sciences, Switzerland), and the cells were incubated in the dark for 15 min. Cells were then washed with binding buffer and resuspended in 200 μl binding buffer, to which PI was added immediately before flow cytometry analysis. At least 10,000 events were collected, recorded on a dot plot, and analyzed by the FACSCalibur™ flow cytometer software (BD Biosciences, Franklin Lakes, N.J.).
b. Additionally, the inhibition of selenite-induced apoptosis by the compounds as analyzed using annexin V-FITC/PI staining and FACS, presented in the FIG. 15c.
as §1

[2] = IC50 for several activities / effective range (activity not specified); details: quoted for comparison with brain levels
[3] = Brain penetration after oral gavage, HPLC/MS of brain extracts; assay type: in vivo, C57BL/6 mice; details: for concentration at 12 h / concentration at 24 h: C57BL/6, mouse, brain, oral, 50 mg/kg, mouse, read-out: Compounds in brain extract
Method: C57BL/6 mice ([…]) were used. The animals received treatments with either free compounds of Formulae 1 and 10, or encapsulated compounds, prepared according to the Examples 16 and 17. Doses as indicated in the Table 4 below were administered in phosphate-buffered saline (PBS) through an oral gavage. After 12 hours and 24 hours, randomly selected mice from each group were sacrificed, their brains collected and stored in −80° C. The concentrations of the compounds in the tissues were determined by HPLC/MS analysis.
Tissue samples were homogenized in phosphate-buffered saline solution, then diluted with acetonitrile to 50% v/v, centrifuged at 10,000 g for 10 minutes, and supernatants were analyzed. The compounds concentrations in the brain extracts were determined from calibration curves. The results were the averaged from 2 mice for each treatment group/time point.

[4] = 6-hydroxydopamine-induced cell toxicity, XTT cell viability; assay type: cell-based; details: human, 24 h, read-out: decrease in cell viability
Method: (§2) SHSY5Y (obtained from ATCC) were grown at 37° C. under an atmosphere of 95% air and 5% CO2 in DMEM medium supplemented with 10% fetal bovine serum, 2 mM L-glutamine, 1000 U/ml penicillin, and 1 mg/ml streptomycin until 60-70% of confluence. Further, the cells were incubated with increasing concentrations of 6-hydroxydopamine. After 24 hours, and cells viability was assayed using the XTT (2,3-bis-(2-methoxy-4-nitro-5-sulfophenyl)-2H-tetrazolium-5-carboxanilide) method, according to the supplier instructions. […] The 50% decrease in cell survival was obtained at about 50 μM of 6-hydroxydopamine.
(§3) Cell viability as assayed following 24 h incubation with different concentrations of 6-hydroxydopamine in the absence (closed squares (▪)) or in the presence of VBIT-12 (15 μM, closed circles (●)) is shown.
(§4) Similarly, cells that were incubated with increasing concentrations of VBIT-12 in presence of either 30 or 50 μM of 6-hydroxydopamine that decreased cell viability by […], respectively, remained viable after 24 hours of the incubation. Cells viability is charted in FIG. 24C versus the concentrations of VBIT-12. Closed squares (▪) indicate control group without 6-hydroxydopamine, open circles (◯) indicates cells' viability when exposed to 30 μM of the 6-hydroxydopamine, and closed circles (●) indicate cells viability at 50 μM of the 6-hydroxydopamine.

SHSY5Y cells = assay: as above; assay type: cell-based; details: Homo sapiens, SH-SY5Y, 24 h, read-out: concentration giving 50% decrease in cell survival
Method: as §2, §3, §4

[5] = 50 mg/kg in PLGA nanoparticles, oral gavage
[6] = 50 mg/kg oral gavage, free compound

| IC50 (VDAC1; HEK-293 cells, compound 2 h then selenite 15 μM 4 h, means±SD (n=3), read-out: VDAC1 oligomerization IC50) [µM] | Kd (purified VDAC1; MST, purified VDAC1 133 nM, 20 min incubation, means±SD (n=3), read-out: VDAC1 binding affinities) [µM] | Structure (SMILES) | IC50 [1] [µM] | IC50 (HEK-293 cells) [µM] | IC50 [2] [µM] | IC50 (VDAC1) [µM] | Kd (purified VDAC1) [µM] | concentration at 12 h [3, 5] [µM] | concentration at 24 h [3, 5] [µM] | concentration at 12 h [3, 6] [µM] | concentration at 24 h [3, 6] [µM] | brain penetration ([3]; given orally, in solution or encapsulated in PLGA nano-particles) | cytotoxicity at 24 h, 30 μM ([4]; 30 μM 6-hydroxydopamine) [%] | cytotoxicity at 24 h, 50 μM ([4]; 50 μM 6-hydroxydopamine) [%] | 6-hydroxydopamine concentration giving 50% decrease in cell survival (SHSY5Y cells) [µM] |
| --- | --- | --- | --- | --- | --- | --- | --- | --- | --- | --- | --- | --- | --- | --- | --- |
| 8.8 ± 0.56 | 31.3 ± 1.7 | O=C1CC(N2CCN(c3ccc(OC(F)(F)F)cc3)CC2)C(=O)N1c1ccc(Cl)cc1 (centres unmarked) [Formula 2, 1-(4-chlorophenyl)-3-(4-(4-(trifluoromethoxy)phenyl)piperazin-1-yl)pyrrolidine-2,5-dione] | 6.6 ± 1.03 | 7.5 ± 0.27 | – | – | – | – | – | – | – | – | – | – | – |
| – | – | O=C1CC(N2CCC(Nc3ccc(OC(F)(F)F)cc3)CC2)C(=O)N1c1ccc(Cl)cc1 (centres unmarked) [Formula 10] | 3.6 ± 0.4 | 3.4 ± 0.2 | 1 | 3.3 ± 0.18 | 15.4 ± 2.9 | 4.36 ± 0.148 | 2.8 ± 1.19 | 4.2 ± 0.714 | 1.24 ± 0.23 | reached the brain | – | – | – |
| – | – | NCCc1cc(O)c(O)cc1O [6-hydroxydopamine, reference compound] | – | – | – | – | – | – | – | – | – | – | 90 | 95 | ~50 |
